Patent US8372967B2, “Compounds and methods for modulating expression of GCCR” (Isis Pharmaceuticals, Inc., priority 2006, dated 2013)
Strand notation (5' to 3'): a small letter for the sugar, then the base; units joined by * are phosphorothioate-linked, units joined directly phosphodiester-linked; [ ] holds rarer units or linkages, { } end groups; capitals alone tell only the bases. e = 2'-O-(2-methoxyethyl) (MOE); [5mC] = 5-methylcytosine; d = 2'-deoxy (DNA)

Experiments:
Assay type in all cases: in vivo
[1] = system: rat SGLT2 mRNA; test: Rat SGLT2 mRNA in kidney, 1-10-1 and 1-10-2 MOE gapmers, Sprague-Dawley rats (Table 63)
Source text: 1-10-1 and 1-10-2 MOE gapmer antisense compounds, provided in Table 62, were designed to target different regions of the mouse or rat SGLT2 RNA. All short antisense compounds in Table 62 are chimeric oligonucleotides (“gapmers”) either 12 or 13 nucleotides in length, composed of a central “gap” segment consisting of ten 2′-deoxynucleotides, which are flanked on the 5′ side by a one-nucleoside “wing” and on the 3′ side by a two or one-nucleotide “wing”. […] All cytidine residues are 5-methylcytidines.
The short antisense compounds were analyzed for their effect on rat SGLT2 mRNA levels. Data are ranges taken from three experiments in which Male Sprague-Dawley rats (170-200 g) were dosed twice per week for three weeks with 450, 150 or 50 nmol/kg of either a 1-10-1 or 1-10-2 MOE gapmer given by intraperitoneal injection. Rats were sacrificed 48 hours following last administration and evaluated for SGLT2 mRNA levels in kidney. Target levels were determined by RT, real-time PCR as described by other examples herein. PCR results were normalized to an internal ISIS control.

[2] = system: mouse SGLT2 mRNA; test: Mouse SGLT2 mRNA in kidney, 1-10-1 MOE gapmers, Balb/c mice (Table 65)
Procedure: The short antisense compounds were analyzed for their effect on mouse SGLT2 mRNA levels. Data was taken from three experiments in which Male 6-week old Balb/c mice were dosed twice per week for two weeks with 450, 150, or 50 nmol/kg of one of the above 1-10-1 MOE gapmers given by intraperitoneal injection. Mice were sacrificed 48 hours following last administration and evaluated for SGLT2 mRNA levels in kidney. Target levels were determined by RT, real-time PCR as described by other examples herein. PCR results were normalized to an internal ISIS control.

[3] = system: rat SGLT2 mRNA; test: Rat SGLT2 mRNA in kidney, 1-10-1 gapmers, 250 nmol/kg (Table 66); settings: for % change in SGLT2 expression relative to saline: 250 nmol/kg i.p. twice per week for three weeks, Sprague-Dawley rat kidney
Procedure: The effect of the above 1-10-1 gapmers (see Table 64 above) on rat SGLT2 mRNA levels. Data are taken from four experiments in which male Sprague-Dawley rats (170-200 g) were dosed twice per week for three weeks with 250 nmol/kg given by intraperitoneal injection. Rats were sacrificed 48 hours following last administration and evaluated for SGLT2 mRNA levels in kidney. Target levels were determined by RT, real-time PCR as described by other examples herein. PCR results were normalized to an internal ISIS control.

[4] = system: mouse SGLT2 mRNA; test: Mouse SGLT2 mRNA in kidney, additional 1-10-1 and 2-8-2 MOE gapmers (Table 68); settings: Balb/c mouse kidney
Procedure: 1-10-1 and 2-8-2 MOE gapmer short antisense compounds were designed to target different regions of the mouse SGLT2 RNA but have complementarity across species. […] All cytidine residues are 5-methylcytidines.
The short antisense compounds were analyzed for their effect on mouse SGLT2 mRNA levels in vivo. Data was taken from three experiments in which male 6-week old Balb/c mice were dosed twice per week for three weeks with 0.5, 0.1, or 0.02 umol/kg of either a 1-10-1 or 2-8-2 MOE gapmer given by intraperitoneal injection. Mice were sacrificed 48 hours following last administration and evaluated for SGLT2 levels in kidney. Target levels were determined by RT, real-time PCR as described by other examples herein. PCR results were normalized to an internal ISIS control.

[5] = system: mouse SGLT2 mRNA; test: Mouse SGLT2 mRNA in kidney, MOE versus Methyleneoxy BNA gapmers (Table 69); settings: Balb/c mouse kidney
Procedure: The effect of ISIS 3796921-10-1 MOE gapmer and ISIS 3886252-8-2 MOE gapmer are compared with the effect of ISIS 3921701-10-1 Methyleneoxy BNA Gapmer and ISIS 3921732-8-2 Methyleneoxy BNA Gapmer (see Table 69) on mouse SGLT2 mRNA levels in vivo. Data are taken from three experiments in which male 6-week old Balb/c mice were dosed twice per week for three weeks with 5, 25 and 125 nmol/kg of either the ISIS 3796921-10-1 MOE gapmer or the ISIS 3886252-8-2 MOE gapmer given by intraperitoneal injection. Mice were sacrificed 48 hours following last administration and evaluated for SGLT2 mRNA levels in kidney. Target levels were determined by RT, real-time PCR as described by other examples herein. PCR results were normalized to an internal ISIS control. The data are expressed as percent change (“+” indicates an increase, “−” indicates a decrease) relative to saline treated animals and are illustrated in Table 69.

[6] = system: rat SGLT2 mRNA; test: Rat SGLT2 mRNA in kidney, 1-10-1 and 2-8-2 MOE gapmer (Table 70); settings: Sprague-Dawley rat kidney
Procedure: The effect of ISIS 3796921-10-1 MOE gapmer and ISIS 388625 MOE 2-8-2 gapmer (see Table 70) on rat SGLT2 mRNA levels in vivo. […] Rats were sacrificed 48 hours following last administration and evaluated for SGLT2 levels in kidney. Target levels were determined by RT, real-time PCR as described by other examples herein. PCR results were normalized to an internal ISIS control.

[7] = 50 nmol/kg i.p. twice per week for three weeks
[8] = 150 nmol/kg i.p. twice per week for three weeks
[9] = 450 nmol/kg i.p. twice per week for three weeks
[10] = 50 nmol/kg i.p. twice per week for two weeks
[11] = 150 nmol/kg i.p. twice per week for two weeks
[12] = 450 nmol/kg i.p. twice per week for two weeks
[13] = 0.02 umol/kg i.p. twice per week for three weeks
[14] = 0.1 umol/kg i.p. twice per week for three weeks
[15] = 0.5 umol/kg i.p. twice per week for three weeks

ISIS 379692: 1-10-1 MOE gapmer, SGLT2 (eT*dG*dT*dT*d[5mC]*d[5mC]*dA*dG*d[5mC]*d[5mC]*d[5mC]*eA)
% change in SGLT2 expression relative to saline [1, 7]: −80% | % change in SGLT2 expression relative to saline [1, 8]: −85% | % change in SGLT2 expression relative to saline [1, 9]: −90% | % change in SGLT2 expression relative to saline [2, 10]: −52.5% | % change in SGLT2 expression relative to saline [2, 11]: −70% | % change in SGLT2 expression relative to saline [2, 12]: −80% | % change in SGLT2 expression relative to saline [3]: −85% | % change in SGLT2 expression relative to saline [4, 13]: −55% | % change in SGLT2 expression relative to saline [4, 14]: −75% | % change in SGLT2 expression relative to saline [4, 15]: −85% | SGLT2 mRNA, percent change relative to saline treated animals ([5]; 5 nmol/kg i.p. twice per week for three weeks): −7% | SGLT2 mRNA, percent change relative to saline treated animals ([5]; 25 nmol/kg i.p. twice per week for three weeks): −46% | SGLT2 mRNA, percent change relative to saline treated animals ([5]; 125 nmol/kg i.p. twice per week for three weeks): −58% | % change in SGLT2 expression relative to saline ([6]; dose 3.125 umol/kg [sic] i.p. twice per week for three weeks): +30% | % change in SGLT2 expression relative to saline ([6]; dose 12.5 umol/kg [sic] i.p. twice per week for three weeks): −15% | % change in SGLT2 expression relative to saline ([6]; dose 50 umol/kg [sic] i.p. twice per week for three weeks): −65% | % change in SGLT2 expression relative to saline ([6]; dose 200 umol/kg [sic] i.p. twice per week for three weeks): −80%

ISIS 379699: GGCATGAGCTTC 1-10-1 MOE, SGLT2 (eG*dG*d[5mC]*dA*dT*dG*dA*dG*d[5mC]*dT*dT*e[5mC])
% change in SGLT2 expression relative to saline [1, 7]: −60% | % change in SGLT2 expression relative to saline [1, 8]: −75% | % change in SGLT2 expression relative to saline [1, 9]: −83% | % change in SGLT2 expression relative to saline [2, 10]: −42.5% | % change in SGLT2 expression relative to saline [2, 11]: −62.5% | % change in SGLT2 expression relative to saline [2, 12]: −80% | % change in SGLT2 expression relative to saline [3]: −75% | % change in SGLT2 expression relative to saline [4, 13]: −30% | % change in SGLT2 expression relative to saline [4, 14]: −60% | % change in SGLT2 expression relative to saline [4, 15]: −75%

ISIS 379702 (eG*d[5mC]*dA*d[5mC]*dA*d[5mC]*dA*dG*d[5mC]*dT*dG*e[5mC])
% change in SGLT2 expression relative to saline [2, 10]: −52.5% | % change in SGLT2 expression relative to saline [2, 11]: −72.5% | % change in SGLT2 expression relative to saline [2, 12]: −75% | % change in SGLT2 expression relative to saline [3]: −25% | % change in SGLT2 expression relative to saline [4, 13]: −40% | % change in SGLT2 expression relative to saline [4, 14]: −65% | % change in SGLT2 expression relative to saline [4, 15]: −70%

ISIS 381408: 1-10-1 MOE gapmer targeting SGLT2 mRNA (TACCGAACACCT; sugars from the 5' end e1 d10 e1, backbone and methylation of C not given here)
% change in SGLT2 expression relative to saline [3]: −5% | expression of SGLT2 in in vivo rat studies ([3]; 250 nmol/kg twice per week for three weeks): Activity of ISIS 381408 has been shown
